Laboratory results taken from paper PMC6073568, “Efficient Lead Finding, Activity Enhancement and Preliminary Selectivity Control of Nuclear Receptor Ligands Bearing a Phenanthridinone Skeleton” (International Journal of Molecular Sciences, 2018).

target: T1, GR (Homo sapiens, UniProt P04150); experiment: GR reporter gene assay in HEK293; assay type: cell-based; details: not given
T1 construct: expressed in transfected cells; host or cells: HEK293
T1 sequence (P04150 1-777): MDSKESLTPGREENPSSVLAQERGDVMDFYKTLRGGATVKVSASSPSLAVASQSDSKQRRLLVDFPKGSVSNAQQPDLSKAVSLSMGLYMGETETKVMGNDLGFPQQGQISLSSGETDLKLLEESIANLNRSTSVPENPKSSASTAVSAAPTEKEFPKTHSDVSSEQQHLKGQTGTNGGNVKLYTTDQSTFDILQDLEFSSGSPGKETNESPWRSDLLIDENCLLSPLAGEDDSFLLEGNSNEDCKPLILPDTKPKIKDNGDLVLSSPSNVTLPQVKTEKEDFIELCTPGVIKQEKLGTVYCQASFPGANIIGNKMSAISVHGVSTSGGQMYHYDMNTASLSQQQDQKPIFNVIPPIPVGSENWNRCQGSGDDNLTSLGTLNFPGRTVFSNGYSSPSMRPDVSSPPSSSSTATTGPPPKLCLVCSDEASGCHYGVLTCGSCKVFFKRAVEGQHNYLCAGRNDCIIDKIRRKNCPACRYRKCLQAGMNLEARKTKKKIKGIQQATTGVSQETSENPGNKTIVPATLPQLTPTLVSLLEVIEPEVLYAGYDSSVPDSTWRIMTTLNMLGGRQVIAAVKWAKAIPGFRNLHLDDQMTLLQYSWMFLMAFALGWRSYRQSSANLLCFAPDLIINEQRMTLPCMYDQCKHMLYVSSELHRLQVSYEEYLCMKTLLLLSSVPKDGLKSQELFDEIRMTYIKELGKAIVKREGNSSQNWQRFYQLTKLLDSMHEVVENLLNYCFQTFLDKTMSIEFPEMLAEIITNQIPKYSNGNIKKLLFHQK

SMILES	improved GR activity compared with 12 [fold]
CCCCn1c(=O)c2ccccc2c2cc(C(O)(C(F)(F)F)C(F)(F)F)c(OC)cc21 [Compound 19]	5.7

same assay, conditions: reporter gene assay, HEK293; agonist dexamethasone 1 nM; read-out: GR antagonistic activity (IC50)

SMILES	IC50 [µM]
O=c1[nH]c2ccc(C(O)(C(F)(F)F)C(F)(F)F)cc2c2ccccc12 [Compound 1]	> 20
CCCCn1c(=O)c2ccccc2c2ccccc21 [Compound 7]	> 20
CCCCn1c(=O)c2ccccc2c2cc(C(C)(C)C)ccc21 [Compound 10]	> 20
CCCCn1c(=O)c2ccccc2c2cc(CO)ccc21 [Compound 11]	> 20
Cn1c(=O)c2ccccc2c2cc(C(O)(C(F)(F)F)C(F)(F)F)ccc21 [Compound 13]	> 20
CCn1c(=O)c2ccccc2c2cc(C(O)(C(F)(F)F)C(F)(F)F)ccc21 [Compound 14]	> 20
CCCCCCCCCn1c(=O)c2ccccc2c2cc(C(O)(C(F)(F)F)C(F)(F)F)ccc21 [Compound 17]	> 20
CCCCn1c(=O)c2ccccc2c2c(OC)c(C(O)(C(F)(F)F)C(F)(F)F)ccc21 [Compound 18]	> 20
CCCCn1c(=O)c2ccccc2c2cc(C(O)(C(F)(F)F)C(F)(F)F)c(OC)cc21 [Compound 19]	1.3
CCCCn1c(=O)c2ccccc2c2cc(C(O)(C(F)(F)F)C(F)(F)F)cc(OC)c21 [Compound 20]	3.9
CCCCn1c(=O)c2c(OC)cccc2c2cc(C(O)(C(F)(F)F)C(F)(F)F)ccc21 [Compound 21]	14
CCCCn1c(=O)c2cc(OC)ccc2c2cc(C(O)(C(F)(F)F)C(F)(F)F)ccc21 [Compound 22]	8.2
CCCCn1c(=O)c2ccc(OC)cc2c2cc(C(O)(C(F)(F)F)C(F)(F)F)ccc21 [Compound 23]	10
CCCCn1c(=O)c2cccc(OC)c2c2cc(C(O)(C(F)(F)F)C(F)(F)F)ccc21 [Compound 24]	> 20

target: T2, LXRα (Homo sapiens, UniProt Q13133); experiment: LXRα reporter gene assay in HEK293; assay type: cell-based; details: read-out: LXRα antagonistic activity (IC50)
T2 construct: CMX-GAL4N-hLXRα-LBD; expressed in transfected cells; host or cells: HEK293
T2 sequence (Q13133 209-447 limits assumed): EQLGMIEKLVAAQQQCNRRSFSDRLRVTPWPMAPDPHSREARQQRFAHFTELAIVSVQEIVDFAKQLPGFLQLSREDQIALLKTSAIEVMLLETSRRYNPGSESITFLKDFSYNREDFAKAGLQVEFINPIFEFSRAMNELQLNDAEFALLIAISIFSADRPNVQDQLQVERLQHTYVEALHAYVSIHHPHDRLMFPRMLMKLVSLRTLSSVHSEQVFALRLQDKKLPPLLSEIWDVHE

SMILES	IC50 [µM]
CCCCn1c(=O)c2ccccc2c2ccccc21 [Compound 7]	19
CCCCn1c(=O)c2ccccc2c2cc(C(C)(C)C)ccc21 [Compound 10]	> 20
CCCCn1c(=O)c2ccccc2c2cc(CO)ccc21 [Compound 11]	> 20
CCn1c(=O)c2ccccc2c2cc(C(O)(C(F)(F)F)C(F)(F)F)ccc21 [Compound 14]	14
CCCCCCCCCn1c(=O)c2ccccc2c2cc(C(O)(C(F)(F)F)C(F)(F)F)ccc21 [Compound 17]	> 20
CCCCn1c(=O)c2ccccc2c2c(OC)c(C(O)(C(F)(F)F)C(F)(F)F)ccc21 [Compound 18]	> 20
CCCCn1c(=O)c2ccccc2c2cc(C(O)(C(F)(F)F)C(F)(F)F)c(OC)cc21 [Compound 19]	8.4
CCCCn1c(=O)c2ccccc2c2cc(C(O)(C(F)(F)F)C(F)(F)F)cc(OC)c21 [Compound 20]	6.9
CCCCn1c(=O)c2c(OC)cccc2c2cc(C(O)(C(F)(F)F)C(F)(F)F)ccc21 [Compound 21]	11
CCCCn1c(=O)c2cc(OC)ccc2c2cc(C(O)(C(F)(F)F)C(F)(F)F)ccc21 [Compound 22]	12
CCCCn1c(=O)c2ccc(OC)cc2c2cc(C(O)(C(F)(F)F)C(F)(F)F)ccc21 [Compound 23]	7
CCCCn1c(=O)c2cccc(OC)c2c2cc(C(O)(C(F)(F)F)C(F)(F)F)ccc21 [Compound 24]	4.6

target: T3, AR (Homo sapiens, UniProt P10275); experiment: AR reporter gene assay in HEK293; assay type: cell-based; details: reporter gene assay, HEK293; agonist dihydrotestosterone 0.3 nM; read-out: AR antagonistic activity (IC50), AR reporter gene
T3 sequence (P10275 1-920): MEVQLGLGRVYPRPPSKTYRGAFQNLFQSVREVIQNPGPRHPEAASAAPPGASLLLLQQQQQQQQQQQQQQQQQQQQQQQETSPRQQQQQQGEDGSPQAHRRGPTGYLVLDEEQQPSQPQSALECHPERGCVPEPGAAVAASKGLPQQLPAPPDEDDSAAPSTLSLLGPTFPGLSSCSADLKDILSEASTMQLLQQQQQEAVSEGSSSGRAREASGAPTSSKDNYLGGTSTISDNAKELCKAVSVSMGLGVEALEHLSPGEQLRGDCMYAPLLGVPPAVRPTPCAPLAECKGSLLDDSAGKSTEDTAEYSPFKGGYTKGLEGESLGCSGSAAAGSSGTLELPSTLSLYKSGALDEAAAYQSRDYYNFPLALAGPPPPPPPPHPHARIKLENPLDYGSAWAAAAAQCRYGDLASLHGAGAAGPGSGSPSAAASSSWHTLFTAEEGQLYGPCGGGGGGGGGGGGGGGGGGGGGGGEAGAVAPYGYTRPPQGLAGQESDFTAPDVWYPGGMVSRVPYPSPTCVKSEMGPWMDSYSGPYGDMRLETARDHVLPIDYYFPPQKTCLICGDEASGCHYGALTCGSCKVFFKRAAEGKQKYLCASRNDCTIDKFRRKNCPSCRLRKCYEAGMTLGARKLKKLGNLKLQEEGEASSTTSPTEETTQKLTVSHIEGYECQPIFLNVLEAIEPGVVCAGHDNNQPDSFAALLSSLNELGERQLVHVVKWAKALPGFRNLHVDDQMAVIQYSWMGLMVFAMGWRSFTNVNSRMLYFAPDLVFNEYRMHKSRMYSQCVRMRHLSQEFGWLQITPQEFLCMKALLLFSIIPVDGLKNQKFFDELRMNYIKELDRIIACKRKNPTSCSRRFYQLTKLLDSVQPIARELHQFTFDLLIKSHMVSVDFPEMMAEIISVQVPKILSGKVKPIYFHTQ

SMILES	IC50 [µM]
O=c1[nH]c2ccc(C(O)(C(F)(F)F)C(F)(F)F)cc2c2ccccc12 [Compound 1]	0.1
CCCCn1c(=O)c2ccccc2c2ccccc21 [Compound 7]	17
CCCCn1c(=O)c2ccccc2c2cc(C(C)(C)C)ccc21 [Compound 10]	17
CCCCn1c(=O)c2ccccc2c2cc(CO)ccc21 [Compound 11]	9.6
Cn1c(=O)c2ccccc2c2cc(C(O)(C(F)(F)F)C(F)(F)F)ccc21 [Compound 13]	0.5
CCn1c(=O)c2ccccc2c2cc(C(O)(C(F)(F)F)C(F)(F)F)ccc21 [Compound 14]	1.7
CCCCCCCCCn1c(=O)c2ccccc2c2cc(C(O)(C(F)(F)F)C(F)(F)F)ccc21 [Compound 17]	15
CCCCn1c(=O)c2ccccc2c2c(OC)c(C(O)(C(F)(F)F)C(F)(F)F)ccc21 [Compound 18]	> 20
CCCCn1c(=O)c2ccccc2c2cc(C(O)(C(F)(F)F)C(F)(F)F)c(OC)cc21 [Compound 19]	1.1
CCCCn1c(=O)c2ccccc2c2cc(C(O)(C(F)(F)F)C(F)(F)F)cc(OC)c21 [Compound 20]	2.4
CCCCn1c(=O)c2c(OC)cccc2c2cc(C(O)(C(F)(F)F)C(F)(F)F)ccc21 [Compound 21]	9.4
CCCCn1c(=O)c2cc(OC)ccc2c2cc(C(O)(C(F)(F)F)C(F)(F)F)ccc21 [Compound 22]	1
CCCCn1c(=O)c2ccc(OC)cc2c2cc(C(O)(C(F)(F)F)C(F)(F)F)ccc21 [Compound 23]	> 20
CCCCn1c(=O)c2cccc(OC)c2c2cc(C(O)(C(F)(F)F)C(F)(F)F)ccc21 [Compound 24]	> 20

target: T4, RORα (Homo sapiens, UniProt P35398); experiment: not given; details: reporter gene assay, HEK293; read-out: RORα inverse agonistic activity (IC50); cited from earlier work
T4 construct: expressed in transfected cells; host or cells: HEK293
T4 sequence (P35398 1-523): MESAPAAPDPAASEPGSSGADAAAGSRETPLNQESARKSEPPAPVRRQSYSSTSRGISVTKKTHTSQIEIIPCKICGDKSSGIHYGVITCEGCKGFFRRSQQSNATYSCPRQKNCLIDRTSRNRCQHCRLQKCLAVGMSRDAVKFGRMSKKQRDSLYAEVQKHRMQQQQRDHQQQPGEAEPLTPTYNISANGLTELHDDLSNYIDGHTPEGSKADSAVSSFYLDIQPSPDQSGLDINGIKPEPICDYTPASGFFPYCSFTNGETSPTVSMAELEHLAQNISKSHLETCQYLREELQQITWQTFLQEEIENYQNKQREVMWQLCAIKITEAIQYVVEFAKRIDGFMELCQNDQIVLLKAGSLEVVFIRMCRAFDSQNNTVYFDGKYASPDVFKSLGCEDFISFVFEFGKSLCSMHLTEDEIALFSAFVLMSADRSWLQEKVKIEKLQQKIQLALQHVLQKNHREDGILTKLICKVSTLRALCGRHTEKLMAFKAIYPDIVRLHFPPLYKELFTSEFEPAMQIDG

SMILES	IC50 [µM]
O=c1[nH]c2ccc(C(O)(C(F)(F)F)C(F)(F)F)cc2c2ccccc12 [Compound 1]	> 20
CCCCn1c(=O)c2ccccc2c2ccccc21 [Compound 7]	10
CCCCn1c(=O)c2ccccc2c2cc(C(C)(C)C)ccc21 [Compound 10]	12
CCCCn1c(=O)c2ccccc2c2cc(CO)ccc21 [Compound 11]	> 20
Cn1c(=O)c2ccccc2c2cc(C(O)(C(F)(F)F)C(F)(F)F)ccc21 [Compound 13]	> 20
CCn1c(=O)c2ccccc2c2cc(C(O)(C(F)(F)F)C(F)(F)F)ccc21 [Compound 14]	> 20
CCCCCCCCCn1c(=O)c2ccccc2c2cc(C(O)(C(F)(F)F)C(F)(F)F)ccc21 [Compound 17]	> 20
CCCCn1c(=O)c2ccccc2c2c(OC)c(C(O)(C(F)(F)F)C(F)(F)F)ccc21 [Compound 18]	> 20
CCCCn1c(=O)c2ccccc2c2cc(C(O)(C(F)(F)F)C(F)(F)F)c(OC)cc21 [Compound 19]	8.2
CCCCn1c(=O)c2ccccc2c2cc(C(O)(C(F)(F)F)C(F)(F)F)cc(OC)c21 [Compound 20]	7.5
CCCCn1c(=O)c2c(OC)cccc2c2cc(C(O)(C(F)(F)F)C(F)(F)F)ccc21 [Compound 21]	12
CCCCn1c(=O)c2cc(OC)ccc2c2cc(C(O)(C(F)(F)F)C(F)(F)F)ccc21 [Compound 22]	12
CCCCn1c(=O)c2ccc(OC)cc2c2cc(C(O)(C(F)(F)F)C(F)(F)F)ccc21 [Compound 23]	6.6
CCCCn1c(=O)c2cccc(OC)c2c2cc(C(O)(C(F)(F)F)C(F)(F)F)ccc21 [Compound 24]	7.7
